Assay results taken from US20220401514A1, “ANTIMICROBIAL, BACTERIOPHAGE-DERIVED POLYPEPTIDES AND THEIR USE AGAINST GRAM-NEGATIVE AND ACID-FAST BACTERIA” (CONTRAFECT CORPORATION, priority 2019, published 2022).
Like-named read-outs stand apart in the source and are kept apart here.

Tests used:
[1] = tested on: carbapenem-resistant P. aeruginosa clinical isolate CFS-1292; experiment: MIC by modified CLSI broth microdilution against P. aeruginosa CFS-1292 (CAA, CAA + human serum); type: cell-based, Pseudomonas aeruginosa
Pseudomonas aeruginosa = experiment: microbe, parasite or virus in culture; type: cell-based; conditions: P. aeruginosa isolates (n per peptide in table)
Enterobacter cloacae = experiment: microbe, parasite or virus in culture; type: cell-based
Procedure, shortened: (§1)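 Peptide MICs were determined by growth inhibition in CAA medium supplemented with human serum.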

Escherichia coli = experiment: microbe, parasite or virus in culture; type: cell-based
Procedure, shortened: as §1

Klebsiella pneumoniae = type: cell-based
Protocol: (§2) Determination of Minimal Inhibitory Concentrations (MIC).
(§3) Additional MIC testing was performed for several peptides against the ESKAPE pathogens Escherichia coli, Enterobacter cloacae, Klebsiella pneumoniae, and Acinetobacter baumannii, in CAA supplemented with human serum (Table D).

Acinetobacter baumannii = experiment: microbe, parasite or virus in culture; type: cell-based
S. maltophilia = experiment: MIC against S. maltophilia isolates; type: cell-based, Stenotrophomonas maltophilia; conditions: S. maltophilia isolates (n per peptide in table)
Procedure, shortened: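 MIC in μg/mL for Chp peptides across several S. maltophilia isolates, n denoting the number of isolates tested.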

[2] = tested on: Pseudomonas aeruginosa, Escherichia coli, Enterobacter cloacae, Klebsiella pneumoniae, and Acinetobacter baumannii; experiment: MIC against a range of Gram-negative organisms (statements covering several species); type: cell-based; conditions: Tables 40-44 isolates
Protocol: as §2, §3

[3] = tested on: carbapenem-resistant bacterial strains; experiment: organism not typed; type: cell-based
Source text: as §2

[4] = Stability assessment in 100% CAA; type: in vitro ADME; parameters: unit not given beside the values
Protocol: Stability was assessed after incubation in 100% human serum at 37° C. after 10 minutes, 1 hour, and 2 hours.
Stability assessment was further conducted in 100% CAA and rabbit serum using the same methodology discussed above.

M. smegmatis = experiment: 45 hr MIC against M. smegmatis (NTM), Mueller Hinton broth; type: cell-based, Mycobacterium smegmatis
M. fortuitum = experiment: 45 hr MIC against M. fortuitum (NTM); type: cell-based, Mycobacterium fortuitum; conditions: M. fortuitum subsp. Fortuitum da Costa Cruz. ATCC 6841
M. avium = experiment: 45 hr MIC against M. avium (NTM); type: cell-based, Mycobacterium avium; conditions: M. avium Chester ATCC 700898
M. scrofulaceum = experiment: 45 hr MIC against M. scrofulaceum (NTM); type: cell-based, Mycobacterium scrofulaceum; conditions: M. scrofulaceum Prissick and Masson ATCC 19981
M. intracellulare = experiment: 45 hr MIC against M. intracellulare (NTM); type: cell-based, Mycobacterium intracellulare; conditions: M. intracellulare (Cuttino and McCabe) Runyon ATCC 13950
[5] = tested on: P. aeruginosa strain CFS-1292; experiment: MIC in presence and absence of NaCl (140 mM); type: cell-based, Pseudomonas aeruginosa
Protocol: Certain Chp peptides were evaluated over a range of physiological NaCl levels and pH values, and were further evaluated for activity in the presence of various divalent cations.

[6] = tested on: P. aeruginosa strain CFS-1292; experiment: MIC at pH 6, pH 7 and pH 8; type: cell-based, Pseudomonas aeruginosa
Protocol: The Chp peptides were further evaluated at varying pH levels. The MIC values were determined at pH 6, pH 7, and pH 8 for 18 different Chp peptides against P. aeruginosa strain CFS-1292. […]

[7] = tested on: P. aeruginosa strain CFS-1292; experiment: MIC in presence of divalent cations (calcium chloride, magnesium sulfate); type: cell-based, Pseudomonas aeruginosa
Protocol: Next, Chp peptides were evaluated in the presence of different divalent cations. […]; (2) in the presence of 2 mM calcium chloride alone; (3) in the presence of 1 mM magnesium sulfate alone; and (4) in the presence of both 2 mM calcium chloride and 1 mM magnesium sulfate. […]

[8] = tested on: P. aeruginosa strain CFS-1292; experiment: MIC in presence and absence of Survanta pulmonary surfactant; type: cell-based, Pseudomonas aeruginosa
[9] = tested on: P. aeruginosa strain CFS-1292; experiment: MIC in presence of mouse, rat, rabbit and human serum ([…] each); type: cell-based, Pseudomonas aeruginosa; conditions: P. aeruginosa CFS-1292
Protocol: The activity of several Chp peptides against P. aeruginosa strain CFS-1292 in animal serum was evaluated. […] Rat, mouse, and rabbit serum were all obtained from pooled gender samples.

[10] = tested on: M. kansasii Hauduroy ATCC 12478; experiment: 45 hr MIC against M. kansasii (NTM), Mueller Hinton broth; type: cell-based, Mycobacterium kansasii
[11] = tested on: Mycobacterium tuberculosis strains
Protocol: MIC values for various Chp peptides were determined using the CLSI method for broth microdilution in 96-well microtiter format.
Next, MIC values for various Chp peptides were determined using the CLSI method above for broth microdilution in 96-well microtiter format for two different Mycobacterium tuberculosis strains. The MIC was determined as explained above for the NTM strains.

[12] = E. cloacae isolates (n per peptide in table)
[13] = E. coli isolates (n per peptide in table)
[14] = K. pneumoniae isolates (n per peptide in table)
[15] = A. baumannii isolates (n per peptide in table)

Question: Which results are given for “MARSRRRMSKRSSRRSFRKYAKTHKKNFKARSMRGGIRL [Ecp3]”?
Answer: MIC (μg/mL) against CFS-1292 in 100% CAA (1st run/2nd run) ([1]; 100% CAA, 1st run or single value): 0.5 µg/mL; MIC (μg/mL) against CFS-1292 in CAA + […] human serum ([1]; CAA + […] human serum): 0.5 µg/mL; MIC50 (Pseudomonas aeruginosa): 2 mg/L; MIC100 (Pseudomonas aeruginosa): 4 mg/L; MIC Range (Pseudomonas aeruginosa): 0.5 to 4 mg/L; MIC50 (Enterobacter cloacae; [12]): 0.5 mg/L; MIC100 (Enterobacter cloacae; [12]): 4 mg/L; MIC Range (Enterobacter cloacae; [12]): 0.25 to 4 mg/L; MIC (Enterobacter cloacae; Enterobacter cloacae ATCC 13047, CAA supplemented with human serum): 4 mg/L; MIC50 (Escherichia coli; [13]): 1 mg/L; MIC100 (Escherichia coli; [13]): 2 mg/L; MIC Range (Escherichia coli; [13]): 0.125 to 8 mg/L; MIC (Escherichia coli; Escherichia coli ATCC 25922, CAA supplemented with human serum): 1 mg/L; MIC50 (Klebsiella pneumoniae; [14]): 1 mg/L; MIC100 (Klebsiella pneumoniae; [14]): 2 mg/L; MIC Range (Klebsiella pneumoniae; [14]): 0.5 to 4 mg/L; MIC (Klebsiella pneumoniae; Klebsiella pneumoniae HM-44, CAA supplemented with human serum): 0.5 mg/L; MIC50 (Acinetobacter baumannii; [15]): 0.25 mg/L; MIC100 (Acinetobacter baumannii; [15]): 0.5 mg/L; MIC Range (Acinetobacter baumannii; [15]): 0.125 to 0.5 mg/L; MIC (Acinetobacter baumannii; Acinetobacter baumannii ATCC BAA 747, CAA supplemented with human serum): 2 mg/L; MIC50 (S. maltophilia): 4 mg/L; MIC100 (S. maltophilia): >8 mg/L; activity (good = MIC100 of ≤4) against all of P. aeruginosa, K. pneumoniae, A. baumannii, E. cloacae, and E. coli [2]: good activity; MIC ([3]; carbapenem-resistant isolate PA19): 0.5 mg/L; MIC ([3]; carbapenem-resistant isolate PA20): 4 mg/L; MIC ([3]; carbapenem-resistant isolate PA21): 4 mg/L; MIC ([3]; carbapenem-resistant isolate PA22): 4 mg/L; MIC ([3]; carbapenem-resistant isolate PA23): 2 mg/L; MIC ([3]; carbapenem-resistant isolate PA24): 2 mg/L; MIC ([3]; carbapenem-resistant isolate WLC-452): 1 mg/L; MIC (100% CAA) [4]: 0.5; 45 hr MIC (M. smegmatis; M. smegmatis MC^2 155, Run #1): 4 mg/L; 45 hr MIC (M. smegmatis; M. smegmatis MC^2 155, Run #2): 8 mg/L; 45 hr MIC (M. fortuitum): 2 mg/L; 45 hr MIC (M. avium): 1 mg/L; 45 hr MIC (M. scrofulaceum): 2 mg/L; 45 hr MIC (M. intracellulare): 8 mg/L; Fold change in MIC ([5]; CAA + 140 mM NaCl versus CAA without added NaCl): 4; MIC, CAA + 140 mM NaCl ([5]; CAA + 140 mM NaCl, P. aeruginosa CFS-1292): 2 mg/L; MIC, CAA (no added NaCl) ([5]; CAA, no added NaCl, P. aeruginosa CFS-1292): 0.5 mg/L; MIC ([6]; CAA media (pH 7)): 1 mg/L; MIC ([6]; pH 6): 2 mg/L; MIC ([6]; pH 7): 2 mg/L; MIC ([6]; pH 8): 2 mg/L; MIC ([7]; CAA media + 1 mM MgSO4): 2 mg/L; MIC ([7]; CAA media + 2 mM CaCl2): 2 mg/L; MIC ([7]; CAA media + + 1 mM MgSO4): 2 mg/L; MIC ([7]; CAA media alone): 1 mg/L; MIC ([8]; CAA media + 0.19 mg/mL Survanta): 0.5 mg/L; MIC ([8]; CAA media + […] Survanta): 0.5 mg/L; MIC ([8]; CAA media alone): 0.5 mg/L; MIC BALB/C Mouse Serum ([9]; BALB/C mouse serum […]): >32 mg/L; MIC CAA ([9]; CAA): 0.5 mg/L; MIC New Zealand White Rabbit Serum ([9]; New Zealand White rabbit serum […]): 8 mg/L; MIC Sprague Dawley Rat Serum ([9]; Sprague Dawley rat serum […]): 8 mg/L; MIC Human Serum ([9]; human serum […]): 0.5 mg/L; 45 hr MIC [10]: 2 mg/L; MIC ([11]; Mycobacterium tuberculosis (Zopf) Lehmann and Neumann ATCC 25177): 16 mg/L; MIC ([11]; Mycobacterium tuberculosis (Zopf) Lehmann and Neumann ATCC 35817): 8 mg/L
